# Laboratory results reported in ChEMBL document CHEMBL1129611, “Vesamicol receptor mapping of brain cholinergic neurons with radioiodine-labeled positional isomers of benzovesamicol” (J Med Chem, 1996).
# Legend:
# [1] = Tissue distribution of [125I]- labelled compound in mice atria in 4 hours; type: functional
# [2] = Tissue distribution of [125I]- labelled compound in mice blood in 0.5 hours; type: functional, tissue-based
# [3] = (§1) Tissue distribution of [125I]- labelled compound in mice blood in 4 hours; type: functional, tissue-based
# [4] = Tissue distribution of [125I]- labelled compound in mice cerebellum in 0.5 hr; type: functional, tissue-based
# [5] = Tissue distribution of [125I]- labelled compound in mice ventricles in 0.5 hr; type: functional
# [6] = Tissue distribution of [125I]- labelled compound in mice ventricles in 4 hours; type: functional
# [7] = Tissue distribution of [125I]- labelled compound in mice latria in 0.5 hr; type: functional
# [8] = Tissue distribution of [125I]- labelled compound in mice striatum in 0.5 hours; type: functional, tissue-based
# [9] = Tissue distribution of [125I]- labelled compound in mice striatum in 4 hours; type: functional, tissue-based
# [10] = Tissue distribution of [125I]- labelled compound in mice cerebellum in 4 hours; type: functional, tissue-based
# [11] = Tissue distribution of [125I]- labelled compound in mice cortex in 0.5 hours; type: functional, tissue-based
# [12] = Tissue distribution of [125I]- labelled compound in mice cortex in 4 hours; type: functional, tissue-based
# [13] = Tissue distribution of [125I]- labelled compound in mice atria in 0.5 hr; type: functional
# [14] = Tissue distribution of [125I]- labelled compound in mice atria in 24 hours; type: functional
# [15] = Tissue distribution of [125I]- labelled compound in mice blood in 24 hours; type: functional, tissue-based
# Mus musculus = organism: Mus musculus; assay: as §1; type: ADME, organism-based; settings: in vivo
# [16] = Tissue distribution of [125I]- labelled compound in mice […] in 24 hours; type: functional
# [17] = Tissue distribution of [125I]- labelled compound in mice […] in 4 hours; type: functional
# [18] = Tissue distribution of [125I]- labelled compound in mice liver in 0.5 hr; type: functional, tissue-based
# [19] = Tissue distribution of [125I]- labelled compound in mice liver in 24 hours; type: functional, tissue-based
# [20] = Tissue distribution of [125I]- labelled compound in mice liver in 4 hours; type: functional, tissue-based
# [21] = Tissue distribution of [125I]- labelled compound in mice lung in 0.5 hr; type: functional, tissue-based
# [22] = Tissue distribution of [125I]- labelled compound in mice lung in 24 hours; type: functional, tissue-based
# [23] = Tissue distribution of [125I]- labelled compound in mice lung in 4 hours; type: functional, tissue-based
# [24] = Tissue distribution of [125I]- labelled compound in mice striatum in 24 hours; type: functional, tissue-based
# [25] = Tissue distribution of [125I]- labelled compound in mice ventricle in 24 hours; type: functional
# [26] = Tissue distribution of [125I]- labelled compound in mice cerebellum in 24 hours; type: functional, tissue-based
# [27] = Tissue distribution of [125I]- labelled compound in mice cortex in 24 hours; type: functional, tissue-based
# [28] = Tissue distribution of [125I]- labelled compound in mice hippocampus in 0.5 hours; type: functional, tissue-based
# [29] = Tissue distribution of [125I]- labelled compound in mice hippocampus in 24 hours; type: functional, tissue-based
# [30] = Tissue distribution of [125I]- labelled compound in mice hippocampus in 4 hours; type: functional, tissue-based
# [31] = Tissue distribution of [125I]- labelled compound in mice […] in 0.5 hours; type: functional
structure (smiles),measurement,setting,value
O[C@@H]1Cc2c(I)cccc2C[C@H]1N1CCC(c2ccccc2)CC1,Dose/g,[1],0.34%
same,Dose/g,[2],1%
same,Dose/g,[3],0.19%
same,Dose/g,[4],1.22%
same,Dose/g,[5],1.25%
same,Dose/g,[6],0.23%
same,Dose/g,[7],1.64%
same,Dose/g,[8],1.64%
same,Dose/g,[9],0.12%
same,Dose/g,[10],0.08%
same,Dose/g,[11],1.53%
same,Dose/g,[12],0.1%
O[C@@H]1Cc2cc(I)ccc2C[C@H]1N1CCC(c2ccccc2)CC1,Dose/g,[13],4.37%
same,Dose/g,[14],0.77%
same,Dose/g,[1],2.45%
same,Dose/g,[2],1.13%
same,Dose/g,[15],0.09%
same,Dose/g,Mus musculus,0.47%
same,Dose/g,[3],0.47%
same,Dose/g,[4],2.06%
same,Dose/g,[5],3.29%
same,Dose/g,[6],1.77%
same,Dose/g,[16],1.35%
same,Dose/g,[17],1.42%
same,Dose/g,[18],19.3%
same,Dose/g,[19],6.48%
same,Dose/g,[20],12.7%
same,Dose/g,[21],13.1%
same,Dose/g,[22],1.74%
same,Dose/g,[23],5.86%
same,Dose/g,[8],2.34%
same,Dose/g,[24],2.32%
same,Dose/g,[9],1.96%
same,Dose/g,[25],0.27%
same,Dose/g,[26],1.06%
same,Dose/g,[10],1.23%
same,Dose/g,[11],2.32%
same,Dose/g,[27],1.74%
same,Dose/g,[12],1.62%
same,Dose/g,[28],1.99%
same,Dose/g,[29],1.48%
same,Dose/g,[30],1.27%
same,Dose/g,[31],2.16%
O[C@@H]1Cc2ccccc2C[C@H]1N1CCC(c2ccc(I)cc2)CC1,Dose/g,[1],1.35%
same,Dose/g,[2],1.85%
same,Dose/g,[3],0.66%
same,Dose/g,[4],2.33%
same,Dose/g,[5],2.9%
same,Dose/g,[6],1.88%
same,Dose/g,[17],0.28%
same,Dose/g,[7],3.03%
same,Dose/g,[18],15.4%
same,Dose/g,[20],9.12%
same,Dose/g,[21],8.86%
same,Dose/g,[23],2.95%
same,Dose/g,[8],2.68%
same,Dose/g,[9],0.33%
same,Dose/g,[10],0.28%
same,Dose/g,[11],3.01%
same,Dose/g,[12],0.32%
same,Dose/g,[28],2.91%
same,Dose/g,[30],0.31%
same,Dose/g,[31],2.73%
O[C@@H]1Cc2ccc(I)cc2C[C@H]1N1CCC(c2ccccc2)CC1,Dose/g,[14],0.1%
same,Dose/g,[1],0.97%
same,Dose/g,[2],1.06%
same,Dose/g,[15],0.05%
same,Dose/g,[3],0.51%
same,Dose/g,[4],2.05%
same,Dose/g,[5],1.34%
same,Dose/g,[6],0.53%
same,Dose/g,[16],0.1%
same,Dose/g,[17],0.68%
same,Dose/g,[7],2.09%
same,Dose/g,[18],18%
same,Dose/g,[19],0.88%
same,Dose/g,[20],6.33%
same,Dose/g,[21],3.39%
same,Dose/g,[22],0.1%
same,Dose/g,[23],0.89%
same,Dose/g,[8],3.9%
same,Dose/g,[24],0.76%
same,Dose/g,[9],3.07%
same,Dose/g,[25],0.1%
same,Dose/g,[26],0.05%
same,Dose/g,[10],0.29%
same,Dose/g,[11],2.99%
same,Dose/g,[27],0.22%
same,Dose/g,[12],1.28%
same,Dose/g,[28],2.73%
same,Dose/g,[29],0.16%
same,Dose/g,[30],1.03%
same,Dose/g,[31],2.51%
O[C@@H]1Cc2cccc(I)c2C[C@H]1N1CCC(c2ccccc2)CC1,Dose/g,[14],0.82%
same,Dose/g,[1],1.43%
same,Dose/g,[2],0.82%
same,Dose/g,[15],0.04%
same,Dose/g,[3],0.53%
same,Dose/g,[4],1.28%
same,Dose/g,[5],1.27%
same,Dose/g,[6],0.31%
same,Dose/g,[16],0.42%
same,Dose/g,[17],0.61%
same,Dose/g,[7],1.73%
same,Dose/g,[18],11%
same,Dose/g,[19],0.89%
same,Dose/g,[20],5.92%
same,Dose/g,[21],7.57%
same,Dose/g,[22],0.09%
same,Dose/g,[23],1.11%
same,Dose/g,[8],3.81%
same,Dose/g,[24],2.2%
same,Dose/g,[9],3.3%
same,Dose/g,[25],0.06%
same,Dose/g,[26],0.05%
same,Dose/g,[10],0.21%
same,Dose/g,[11],2.29%
same,Dose/g,[27],0.88%
same,Dose/g,[12],1.17%
same,Dose/g,[28],2.09%
same,Dose/g,[29],0.71%
same,Dose/g,[30],1.06%
same,Dose/g,[31],1.69%
